Values of other authors in patent publication US20110177042A1, “Method for Dedifferentiating Melanocytes” (priority 2008, published 2011).

Tested on: Notch1
Settings: identified in cited literature (Xiao 2009; Adler 2008; Stockhausen 2005)

Q: Which Notch1 activation does the source give for `CCCC(CCC)C(=O)O` [valproic acid] here?
A: strong Notch1 activators

Q: Which Notch1 activation does the source give for `O=C(CCCCCCC(=O)NO)NO` [suberoyl bis-hydroxamic acid] here?
A: strong Notch1 activators
